Tests used:
Assay in all cases: relative viability (nuclei count vs DMSO), 5 days (fraction); higher = more cells survive
Zosuquidar = compound: O[C@@H](COc1cccc2ncccc12)CN1CCN([C@@H]2c3ccccc3[C@@H]3[C@H](c4ccccc42)C3(F)F)CC1 [Zosuquidar]
Outline: (§1)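 Lung cancer cell lines in 1536-well plates were exposed by pinning to five library-drug doses (not always all listed) √10 apart, following an overnight hold at 37 °C. MetaXpress counted Hoechst-stained nuclei from 4× images taken after 5 days without medium change. Viability is the median ratio of treated-well to vehicle-well nuclei across plates. Plates required control CV below 25% and at least one doubling.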

Kobe2602 = compound: C1=CC(=CC=C1NC(=S)NNC2=C(C=C(C=C2[N+](=O)[O-])C(F)(F)F)[N+](=O)[O-])F [Kobe2602]
Outline: as §1

Cabozantinib = compound: COc1cc2nccc(Oc3ccc(NC(=O)C4(C(=O)Nc5ccc(F)cc5)CC4)cc3)c2cc1OC [Cabozantinib]
Outline: as §1

Cell Line	relative viability (Zosuquidar; 0.01 µM)	relative viability (Zosuquidar; 0.03162 µM)	relative viability (Zosuquidar; 0.1 µM)	relative viability (Zosuquidar; 0.3162 µM)	relative viability (Zosuquidar; 1 µM)	relative viability (Kobe2602; 0.2 µM)	relative viability (Kobe2602; 0.6325 µM)	relative viability (Kobe2602; 2 µM)	relative viability (Kobe2602; 6.325 µM)	relative viability (Kobe2602; 20 µM)	relative viability (Cabozantinib; 0.02 µM)	relative viability (Cabozantinib; 0.06325 µM)	relative viability (Cabozantinib; 0.2 µM)	relative viability (Cabozantinib; 0.6325 µM)	relative viability (Cabozantinib; 2 µM)
201T	0.947	0.979	0.883	0.985	0.982	1	1.01	0.946	0.997	0.963	0.868	1.1	0.967	1	0.965
A549	0.895	0.802	0.935	1.09	0.98	0.946	0.965	0.975	0.929	0.97	0.981	1.01	0.991	0.941	0.907
A-427	1.02	1.01	0.801	1.14	0.96	1.03	1.12	0.962	1.04	1.06	0.996	1.01	1.02	0.972	0.98
ABC-1	0.926	0.841	1.04	0.986	0.911	0.941	1.1	0.769	1.06	1.04	0.902	1.05	0.993	0.875	0.887
BEN	0.994	0.876	0.801	0.938	0.977	1.14	1.02	0.925	0.981	1.01	0.918	1.11	1	0.95	0.808
CAL-12T	1.07	1.16	0.923	1.2	0.932	0.965	1.06	0.896	0.997	0.957	1.04	1.14	1.01	0.982	1.01
COR-L23	1.06	1.11	1.02	1.1	1.06	0.95	1.06	1.09	1.09	0.95	1.11	1.04	0.993	1	1.07
COR-L 105	0.955	0.841	0.796	1.04	0.905	0.899	1.06	0.858	0.985	0.914	0.844	0.991		0.888	0.857
Calu-6	0.993	0.989	1.11	1.04	1.06	0.992	1.05	1.01	1.01	0.929	1.14	1.08	0.977	0.987	0.954
ChaGo-K-1	1.02	0.998	0.978	1.02	0.999	1.09	1.04	0.946	0.979	0.972	1.06	1.05	1	0.909	1.01
EBC-1	1.05	1.01	0.956	1.11	0.929	0.956	1.05	0.957	0.93	0.984	1.04	0.901	0.227	0.174	0.165
EKVX	0.952	0.961	0.737	1.02	0.97	0.968	1.02	0.922	0.976	1.09	0.919	1.12	0.915	1.01	1.1
EMC-BAC-2	1.01	0.955	0.89	1.12	0.73	1.02	1.26	0.947	1.12	0.999	0.776	1.1	1.15	1.04	1.01
EPLC-272H	0.963	0.995	0.781	1.06	0.892	0.98	1.16	0.952	1.02	1.04	0.921	1.17	0.821	0.872	0.856
H3255	0.959	0.952	0.8	1.07	0.931	0.959	1.03	0.909	0.91	0.915	0.948	1.04		0.994	1.07
HARA	0.98	0.852	0.944	1.01	0.941	0.978	1.13	0.944	1.01	1.03	0.916	1.16	0.714	1.04	1.05
HCC-15	0.959	0.937	0.956	1.04	0.972	1	1.03	0.976	0.998	0.991	0.972	1.11	1.01	0.994	1.02
HCC-44	1.01	1.03	0.987	1.05	0.978	0.982	1.02	0.974	0.958	0.942	1.01	1.05	1.04	1.06	1.01
HCC-78	1.07	1		0.997	0.897	0.984	0.975	0.968	0.918	1.15		0.958	0.471	0.37	0.447
HCC-366	1	1.04	0.977	1.04	0.986	0.985	0.982	1.02	1.02	1.07	1.06	1.02	0.99	0.967	0.995
HCC-827	0.973	0.977	0.981	1.06	0.976	1.07	1.13	1.06	1	1.02	1.07	1.01		1.12	1.06
HOP-62	1.03	1.05	1.02	1.05	0.975	0.983	1.07	0.952	1.04	1.01	1.1	1.1	1.16	1.08	1.09
IA-LM	0.939	1.01	0.838	0.945	0.865	0.932	1.08	0.923	0.895	0.929	1.21	1.09	0.9	1.04	1.27
